From patent US9090576B2, “2-substituted-p-quinone derivatives for treatment of oxidative stress diseases” (Edison Pharmaceuticals, Inc., priority 2008, dated 2015)

Legend:
Assay type in all cases: cell-based
[1] = system: Human dermal fibroblasts from Friedreich's Ataxia patients; assay: Rescue of BSO-stressed FRDA fibroblasts (Calcein AM viability); conditions: BSO-stressed FRDA fibroblasts (GM04078), less than about 150 nM, read-out: EC50, protection against FRDA
Description: An initial screen was performed to identify compounds effective for the amelioration of redox disorders. Test samples, 4 reference compounds (Idebenone, decylubiquinone, Trolox and α-tocopherol acetate), and solvent controls were tested for their ability to rescue FRDA fibroblasts stressed by addition of L-buthionine-(S,R)-sulfoximine (BSO), as described in Jauslin et al., Hum. Mol. Genet. 11(24):3055 (2002), Jauslin et al., FASEB J. 17:1972-4 (2003), and International Patent Application WO 2004/003565. […] This specific BSO-mediated cell death can be prevented by administration of antioxidants or molecules involved in the antioxidant pathway, such as α-tocopherol, selenium, or small molecule glutathione peroxidase mimetics. However, antioxidants differ in their potency, i.e. the concentration at which they are able to rescue BSO-stressed FRDA fibroblasts.
MEM (a medium enriched in amino acids and vitamins, catalog no. 1-31F24-I) and Medium 199 (M199, catalog no. 1-21F22-I) with Earle's Balanced Salts, without phenol red, were purchased from Bioconcept. Fetal Calf Serum was obtained from PAA Laboratories. Basic fibroblast growth factor and epidermal growth factor were purchased from PeproTech. Penicillin-streptomycin-glutamine mix, L-buthionine (S,R)-sulfoximine, (+)-α-tocopherol acetate, decylubiquinone, and insulin from bovine pancreas were purchased from Sigma. Trolox (6-hydroxy-2,5,7,8-tetramethylchromane-2-carboxylic acid) was obtained from Fluka. Idebenone was obtained from Chemo Iberica. Calcein AM was purchased from Molecular Probes. Cell culture medium was made by combining 125 ml M199 EBS, 50 ml Fetal Calf Serum, 100 U/ml penicillin, 100 μg/ml streptomycin, 2 mM glutamine, 10 μg/ml insulin, 10 ng/ml EGF, and 10 ng/ml bFGF; MEM EBS was added to make the volume up to 500 ml. A 10 mM BSO solution was prepared by dissolving 444 mg BSO in 200 ml of medium with subsequent filter-sterilization. During the course of the experiments, this solution was stored at +4° C. The cells were obtained from the Coriell Cell Repositories (Camden, N.J.; repository number GM04078) and grown in 10 cm tissue culture plates. Every third day, they were split at a 1:3 ratio.
The test samples were supplied in 1.5 ml glass vials. The compounds were diluted with DMSO, ethanol or PBS to result in a 5 mM stock solution. Once dissolved, they were stored at −20° C. Reference antioxidants (Idebenone, decylubiquinone, α-tocopherol acetate and trolox) were dissolved in DMSO.
Test samples were screened according to the following protocol:
(§1) A culture with FRDA fibroblasts was started from a 1 ml vial with approximately 500,000 cells stored in liquid nitrogen. Cells were propagated in 10 cm cell culture dishes by splitting every third day in a ratio of 1:3 until nine plates were available. Once confluent, fibroblasts were harvested. For 54 micro titer plates (96 well-MTP) a total of 14.3 million cells (passage eight) were re-suspended in 480 ml medium, corresponding to 100 μl medium with 3,000 cells/well. The remaining cells were distributed in 10 cm cell culture plates (500,000 cells/plate) for propagation. The plates were incubated overnight at 37° C. in an atmosphere with 95% humidity and 5% CO2 to allow attachment of the cells to the culture plate.
(§2) MTP medium (243 μl) was added to a well of the microtiter plate. The test compounds were unfrozen, and 7.5 μl of a 5 mM stock solution was dissolved in the well containing 243 μl medium, resulting in a 150 μM master solution. Serial dilutions from the master solution were made. The period between the single dilution steps was kept as short as possible (generally less than 1 second).
Plates were kept overnight in the cell culture incubator. The next day, 10 μl of a 10 mM BSO solution were added to the wells, resulting in a 1 mM final BSO concentration. Forty-eight hours later, three plates were examined under a phase-contrast microscope to verify that the cells in the 0% control (wells E1-H1) were clearly dead. […]

[2] = system: human dermal fibroblasts from Huntington's patients; assay: Rescue of BSO-stressed fibroblasts from Huntington's patients (screen as Example A); conditions: Fibroblast, BSO-stressed Huntington's fibroblasts (GM 04281), less than about 150 nM, read-out: EC50, protection against Huntington's
Description: as §1, §2
(§3) Plates were kept overnight in the cell culture incubator. The next day, 10 μl of a 10 mM BSO solution were added to the wells, resulting in a 1 mM final BSO concentration. Forty-eight hours later, three plates were examined under a phase-contrast microscope to verify that the cells in the 0% control (wells E1-H1) were clearly dead. The medium from all plates was discarded, and the remaining liquid was removed by gently tapping the plate inversed onto a paper towel.
(§4) 100 μl of PBS containing 1.2 μM Calcein AM were then added to each well. The plates were incubated for 50-70 minutes at room temperature. After that time the PBS was discarded, the plate gently tapped on a paper towel and fluorescence (excitation/emission wavelengths of 485 nm and 525 nm, respectively) was read on a Gemini fluorescence reader. Data was imported into Microsoft Excel (EXCEL is a registered trademark of Microsoft Corporation for a spreadsheet program) and used to calculate the EC50 concentration for each compound.
Compounds of the invention were tested using the screen as described in Example A, but substituting FRDA cells with Huntington's cells obtained from the Coriell Cell Repositories (Camden, N.J.; repository number GM 04281). The compounds were tested for their ability to rescue human dermal fibroblasts from Huntington's patients from oxidative stress.

[3] = system: human dermal fibroblasts from LHON patients; assay: Rescue of BSO-stressed fibroblasts from LHON patients (screen as Example A); conditions: Fibroblast, BSO-stressed LHON fibroblasts (GM03858), less than about 150 nM, read-out: EC50, protection against LHON
Description: as §1, §2, §3, §4
Compounds of the invention were screened as described in Example A, but substituting FRDA cells with Leber's Hereditary Optic Neuropathy (LHON) cells obtained from the Coriell Cell Repositories (Camden, N.J.; repository number GM03858). The compounds were tested for their ability to rescue human dermal fibroblasts from LHON patients from oxidative stress.

[4] = system: human dermal fibroblasts from Parkinson's Disease patients; assay: Rescue of BSO-stressed fibroblasts from Parkinson's Disease patients (screen as Example A); conditions: Fibroblast, BSO-stressed Parkinson's Disease fibroblasts (AG20439), less than about 150 nM, read-out: EC50, protection against PD
Description: as §1, §2, §3, §4
Compounds of the invention were screened as described in Example A, but substituting FRDA cells with Parkinson's Disease (PD) cells obtained from the Coriell Cell Repositories (Camden, N.J.; repository number AG20439). The compounds were tested for their ability to rescue human dermal fibroblasts from Parkinson's Disease patients from oxidative stress.

Measured: EC50

CC1=C(C)C(=O)C(CCCC(=O)Nc2ccc(F)c(F)c2)=C(C)C1=O [N-(3,4-difluorophenyl)-4-(2,4,5-trimethyl-3,6-dioxocyclohexa-1,4-dienyl)butanamide]
< 0.15 µM: all assays above

CC1=C(C)C(=O)C(CCCC(=O)Nc2cccc(Cl)c2Cl)=C(C)C1=O [N-(2,3-dichlorophenyl)-4-(2,4,5-trimethyl-3,6-dioxocyclohexa-1,4-dienyl)butanamide]
< 0.15 µM: all assays above

CC1=C(C)C(=O)C(CCNC(=O)Cc2ccc(F)cc2)=C(C)C1=O [2-(4-fluorophenyl)-N-(2-(2,4,5-trimethyl-3,6-dioxocyclohexa-1,4-dienyl)ethyl)acetamide]
< 0.15 µM: all assays above

CC1=C(C)C(=O)C(CCC(C)C(=O)Nc2ccccn2)=C(C)C1=O (stereo not shown) [2-methyl-N-(pyridin-2-yl)-4-(2,4,5-trimethyl-3,6-dioxocyclohexa-1,4-dienyl)butanamide]
< 0.15 µM: all assays above

CC1=C(C)C(=O)C(CCNC(=O)NCCN(C)C)=C(C)C1=O [1-(2-(dimethylamino)ethyl)-3-(2-(2,4,5-trimethyl-3,6-dioxocyclohexa-1,4-dienyl)ethyl)urea]
< 0.15 µM: all assays above

CC1=C(C)C(=O)C(CCNC(=O)c2ccc(F)cc2)=C(C)C1=O [4-fluoro-N-(2-(2,4,5-trimethyl-3,6-dioxocyclohexa-1,4-dienyl)ethyl)benzamide]
< 0.15 µM: [1] | [3] | [4]

CC1=C(C)C(=O)C(CCNC(=O)c2ccc(Cl)cc2)=C(C)C1=O [4-chloro-N-(2-(2,4,5-trimethyl-3,6-dioxocyclohexa-1,4-dienyl)ethyl)benzamide]
< 0.15 µM: [1] | [3] | [4]

COc1ccc(S(=O)(=O)NCCC2=C(C)C(=O)C(C)=C(C)C2=O)cc1 [4-methoxy-N-(2-(2,4,5-trimethyl-3,6-dioxocyclohexa-1,4-dienyl)ethyl)benzenesulfonamide]
< 0.15 µM: all assays above

CC1=C(CCNC(N)=O)C(=O)C(c2ccc(Cl)cc2)=C(C)C1=O [1-(2-(5-(4-chlorophenyl)-2,4-dimethyl-3,6-dioxocyclohexa-1,4-dienyl)ethyl)urea]
< 0.15 µM: all assays above

CC1=C(C)C(=O)C(CCNC(=O)NCc2ccncc2)=C(C)C1=O [1-(pyridin-4-ylmethyl)-3-(2-(2,4,5-trimethyl-3,6-dioxocyclohexa-1,4-dienyl)ethyl)urea]
< 0.15 µM: all assays above

CC1=C(CCNS(=O)(=O)c2ccc(F)cc2)C(=O)C(c2ccc(Cl)cc2)=C(C)C1=O [N-(2-(5-(4-chlorophenyl)-2,4-dimethyl-3,6-dioxocyclohexa-1,4-dienyl)ethyl)-4-fluorobenzenesulfonamide]
< 0.15 µM: [1] | [2] | [4]

CC1=C(C)C(=O)C(CCCC(=O)Nc2c(F)cccc2F)=C(C)C1=O [N-(2,6-difluorophenyl)-4-(2,4,5-trimethyl-3,6-dioxocyclohexa-1,4-dienyl)butanamide]
< 0.15 µM: all assays above

CC1=C(C)C(=O)C(CCCC(=O)NC(C)(C)CO)=C(C)C1=O [N-(1-hydroxy-2-methylpropan-2-yl)-4-(2,4,5-trimethyl-3,6-dioxocyclohexa-1,4-dienyl)butanamide]
< 0.15 µM: [1] | [4]

CC1=C(C)C(=O)C(CCCC(=O)Nc2ccc(Cl)c(Cl)c2)=C(C)C1=O [N-(3,4-dichlorophenyl)-4-(2,4,5-trimethyl-3,6-dioxocyclohexa-1,4-dienyl)butanamide]
< 0.15 µM: all assays above

COc1ccc(NC(=O)CCCC2=C(C)C(=O)C(C)=C(C)C2=O)cc1 [N-(4-methoxyphenyl)-4-(2,4,5-trimethyl-3,6-dioxocyclohexa-1,4-dienyl)butanamide]
< 0.15 µM: all assays above

CC1=C(C)C(=O)C(CCCC(=O)Nc2cc(F)cc(F)c2)=C(C)C1=O [N-(3,5-difluorophenyl)-4-(2,4,5-trimethyl-3,6-dioxocyclohexa-1,4-dienyl)butanamide]
< 0.15 µM: all assays above

CC1=C(C)C(=O)C(CCNC(=O)NCc2ccc(F)cc2)=C(C)C1=O [1-(4-Fluorobenzyl)-3-(2-(2,4,5-trimethyl-3,6-dioxocyclohexa-1,4-dienyl)ethyl)urea]
< 0.15 µM: all assays above

CC1=C(C)C(=O)C(CCCC(=O)Nc2cc(F)ccc2F)=C(C)C1=O [N-(2,5-difluorophenyl)-4-(2,4,5-trimethyl-3,6-dioxocyclohexa-1,4-dienyl)butanamide]
< 0.15 µM: all assays above

CC1=C(C)C(=O)C(CCNC(=O)c2ccc(C(F)(F)F)cc2)=C(C)C1=O [4-(Trifluoromethyl)-N-(2-(2,4,5-trimethyl-3,6-dioxocyclohexa-1,4-dienyl)ethyl)benzamide]
< 0.15 µM: [1] | [3] | [4]

CC1=C(C)C(=O)C(CCC(C)C(=O)NCCO)=C(C)C1=O (stereo not shown) [N-(2-hydroxyethyl)-2-methyl-4-(2,4,5-trimethyl-3,6-dioxocyclohexa-1,4-dienyl)butanamide]
< 0.15 µM: [1] | [2] | [3]
